These results are taken from patent US20240384268A1, “Oligonucleotides” (Hudson Institute of Medical Research, priority 2021, published 2024).

In the oligonucleotide strings, read from the 5' end, every base follows the letter of its sugar. An asterisk marks phosphorothioate; unmarked linkages are phosphodiester. Other units and linkages are bracketed, terminal groups are in braces. A string of capitals states the bases alone. d = 2'-deoxy (DNA); m = 2'-O-methyl

The target in this data set is T1, human TLR7 (Homo sapiens, UniProt Q9NYK1).
T1 construct: HA; host or cells: 293XL-hTLR7-HA (HEK293)
T1 sequence (Q9NYK1 27-1049): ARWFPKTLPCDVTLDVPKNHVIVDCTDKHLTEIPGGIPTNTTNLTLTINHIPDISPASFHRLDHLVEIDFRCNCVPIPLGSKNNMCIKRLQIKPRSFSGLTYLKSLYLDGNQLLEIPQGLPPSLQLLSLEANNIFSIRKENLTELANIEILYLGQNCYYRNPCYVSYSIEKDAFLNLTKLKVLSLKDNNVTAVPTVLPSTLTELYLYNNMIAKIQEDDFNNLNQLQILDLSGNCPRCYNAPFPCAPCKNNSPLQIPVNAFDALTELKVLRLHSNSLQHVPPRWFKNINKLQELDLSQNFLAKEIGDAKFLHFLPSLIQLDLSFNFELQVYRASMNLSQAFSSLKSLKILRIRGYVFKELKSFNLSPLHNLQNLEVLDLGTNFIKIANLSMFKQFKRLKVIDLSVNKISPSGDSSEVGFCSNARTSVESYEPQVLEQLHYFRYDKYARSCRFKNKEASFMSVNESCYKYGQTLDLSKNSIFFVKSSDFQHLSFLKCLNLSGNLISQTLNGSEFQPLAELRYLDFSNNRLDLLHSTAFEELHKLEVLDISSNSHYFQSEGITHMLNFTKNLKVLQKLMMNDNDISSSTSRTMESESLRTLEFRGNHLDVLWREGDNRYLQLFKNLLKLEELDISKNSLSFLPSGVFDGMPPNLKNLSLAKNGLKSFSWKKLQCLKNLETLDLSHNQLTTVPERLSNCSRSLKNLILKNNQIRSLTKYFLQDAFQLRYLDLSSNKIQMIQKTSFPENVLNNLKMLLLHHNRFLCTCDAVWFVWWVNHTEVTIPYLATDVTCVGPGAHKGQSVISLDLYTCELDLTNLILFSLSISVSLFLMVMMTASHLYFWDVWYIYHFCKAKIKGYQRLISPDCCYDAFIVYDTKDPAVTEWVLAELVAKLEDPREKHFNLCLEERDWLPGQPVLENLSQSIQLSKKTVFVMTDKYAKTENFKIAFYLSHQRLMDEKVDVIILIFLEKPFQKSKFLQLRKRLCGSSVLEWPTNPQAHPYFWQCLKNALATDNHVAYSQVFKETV
The data set is described as follows: HEK-TLR7 NF-κB-luciferase reporter, R848 stimulation. The note with it: HEK-TLR7; 100 nM ASO; percentage of R848 without ASO (Alharbi et al., 2020). Format: cell-based.
On to “mC*mA*mC*mU*mG*T*A*T*T*T*T*A*T*T*A*mC*mA*mG*mA*mA (mC*mA*mC*mU*mG*dT*dA*dT*dT*dT*dT*dA*dT*dT*dA*mC*mA*mG*mA*mA; antisense) [[LINC-PINT]2990]”, for which the “TLR7-100 nM: averaged NF-κB-Luciferase relative to R848” value stood at 58.13%.

For “mC*mA*mG*mG*mC*C*T*C*C*A*G*T*G*T*C*mU*mU*mC*mU*mC (mC*mA*mG*mG*mC*dC*dT*dC*dC*dA*dG*dT*dG*dT*dC*mU*mU*mC*mU*mC; antisense) [[CDKN2B-AS1]2219]”, the “TLR7-100 nM: averaged NF-κB-Luciferase relative to R848” value is 54.11%.

Turning to “mC*mA*mU*mC*mC*C*T*T*C*T*G*C*T*G*C*mC*mA*mA*mG*mC (mC*mA*mU*mC*mC*dC*dT*dT*dC*dT*dG*dC*dT*dG*dC*mC*mA*mA*mG*mC; antisense) [[LINC-PINT]98]”, the “TLR7-100 nM: averaged NF-κB-Luciferase relative to R848” value was found to be 54.34%.

With “mC*mC*mA*mU*mC*C*C*T*T*C*T*G*C*T*G*mC*mC*mA*mA*mG (mC*mC*mA*mU*mC*dC*dC*dT*dT*dC*dT*dG*dC*dT*dG*mC*mC*mA*mA*mG; antisense) [ILING-PINT199]”, the “TLR7-100 nM: averaged NF-κB-Luciferase relative to R848” value is listed as 52.57%.

For the substance “mC*mC*mA*mU*mG*T*C*C*C*A*G*G*C*C*T*mC*mC*mA*mG*mU (CCAUGTCCCAGGCCTCCAGU; sugars from the 5' end m5 d10 m5, all phosphorothioate, methylation of C not given here) [[CDKN2B-AS1]2227]”, the “TLR7-100 nM: averaged NF-κB-Luciferase relative to R848” value stood at 41.39%.

“mC*mC*mC*mU*mA*A*T*G*C*T*T*T*C*C*T*mC*mU*mC*mC*mA (mC*mC*mC*mU*mA*dA*dT*dG*dC*dT*dT*dT*dC*dC*dT*mC*mU*mC*mC*mA; antisense) [[LINC-PINT1877 KL]”: the “TLR7-100 nM: averaged NF-κB-Luciferase relative to R848” value was 58.39%.

Regarding “mC*mC*mC*mU*mU*C*T*C*T*C*T*G*G*T*C*mC*mC*mA*mU*mC (mC*mC*mC*mU*mU*dC*dT*dC*dT*dC*dT*dG*dG*dT*dC*mC*mC*mA*mU*mC; antisense) [[LINC-PINT]114]”, the “TLR7-100 nM: averaged NF-κB-Luciferase relative to R848” value turned out to be 49.59%.

With “mC*mC*mU*mA*mG*A*A*A*G*A*A*G*C*A*A*mA*mG*mA*mU*mU (mC*mC*mU*mA*mG*dA*dA*dA*dG*dA*dA*dG*dC*dA*dA*mA*mG*mA*mU*mU) [[CDKN2B-AS1]1522]”, the “TLR7-100 nM: averaged NF-κB-Luciferase relative to R848” value worked out at 57.20%.

Take “mC*mC*mU*mU*mC*T*C*T*C*T*G*GT*C*C*mC*mA*mU*mC*mC (CCUUCTCTCTGGTCCCAUCC; antisense; chemistry not fully specified) [[LINC-PINT]113]”: the “TLR7-100 nM: averaged NF-κB-Luciferase relative to R848” value amounted to 60.90%.

Turning to “mC*mC*mU*mU*mC*T*G*C*T*G*C*C*A*A*G*mC*mC*mC*mC*mA (mC*mC*mU*mU*mC*dT*dG*dC*dT*dG*dC*dC*dA*dA*dG*mC*mC*mC*mC*mA; antisense) [[LINC-PINT]94]”, the “TLR7-100 nM: averaged NF-κB-Luciferase relative to R848” value was determined as 85.57%.

As to “mC*mU*mC*mU*mC*T*G*G*T*C*C*C*A*T*C*mC*mC*mU*mU*mC (mC*mU*mC*mU*mC*dT*dG*dG*dT*dC*dC*dC*dA*dT*dC*mC*mC*mU*mU*mC; antisense) [[LINC-PINT]109]”, the “TLR7-100 nM: averaged NF-κB-Luciferase relative to R848” value was 84.97%.

Turning to “mC*mU*mU*mC*mU*C*T*C*T*G*G*T*C*C*C*mA*mU*mC*mC*mC (mC*mU*mU*mC*mU*dC*dT*dC*dT*dG*dG*dT*dC*dC*dC*mA*mU*mC*mC*mC) [[LINC-PINT]112]”, the “TLR7-100 nM: averaged NF-κB-Luciferase relative to R848” value was 56.20%.

As to “mC*mU*mU*mU*mA*T*A*T*T*A*C*A*A*A*G*mC*mU*mA*mC*mU (mC*mU*mU*mU*mA*dT*dA*dT*dT*dA*dC*dA*dA*dA*dG*mC*mU*mA*mC*mU; antisense) [[LINC-PINT]2755]”, the “TLR7-100 nM: averaged NF-κB-Luciferase relative to R848” value stood at 54.83%.

With “mG*mA*mA*mA*mA*G*A*T*T*A*T*C*T*T*C*mU*mU*mU*mU*mA (GAAAAGATTATCTTCUUUUA; sugars from the 5' end m5 d10 m5, all phosphorothioate, methylation of C not given here) [[CDKN2B-AS1]2134]”, the “TLR7-100 nM: averaged NF-κB-Luciferase relative to R848” value was found to be 34.44%.

Consider “mG*mA*mU*mG*mG*T*T*C*C*A*G*T*C*C*C*mU*mC*mU*mU*mC (GAUGGTTCCAGTCCCUCUUC; antisense; sugars from the 5' end m5 d10 m5, all phosphorothioate, methylation of C not given here) [[LINC-PINT]1497.1]”, for which the “TLR7-100 nM: averaged NF-κB-Luciferase relative to R848” value turned out to be 22.32%.

With “mG*mA*mU*mU*mA*A*A*A*C*A*G*A*T*T*A*mA*mU*mA*mC*mA (mG*mA*mU*mU*mA*dA*dA*dA*dC*dA*dG*dA*dT*dT*dA*mA*mU*mA*mC*mA) [[CDKN2B-AS1]1773]”, the “TLR7-100 nM: averaged NF-κB-Luciferase relative to R848” value amounted to 21.92%.

On to “mG*mC*mA*mA*mG*G*C*A*G*A*G*A*A*A*C*mU*mC*mC*mA*mG (GCAAGGCAGAGAAACUCCAG; sugars from the 5' end m5 d10 m5, all phosphorothioate, methylation of C not given here) [[LINC-PINT]1315 KL]”, for which the “TLR7-100 nM: averaged NF-κB-Luciferase relative to R848” value was 19,99%.

As for “mG*mC*mG*mU*mA*G*T*T*T*C*T*C*T*T*C*mC*mU*mC*mC*mC (GCGUAGTTTCTCTTCCUCCC; sugars from the 5' end m5 d10 m5, all phosphorothioate, methylation of C not given here) [[LINC-PINT]935 KL]”, the “TLR7-100 nM: averaged NF-κB-Luciferase relative to R848” value is listed as 27.23%.

For “mG*mG*mA*mU*mU*A*A*A*A*C*A*G*A*T*T*mA*mA*mU*mA*mC (GGAUUAAAACAGATTAAUAC; sugars from the 5' end m5 d10 m5, all phosphorothioate, methylation of C not given here) [[CDKN2B-AS1]1774]”, the “TLR7-100 nM: averaged NF-κB-Luciferase relative to R848” value amounted to 27.16%.

As to “mG*mG*mG*mU*mC*T*C*C*T*C*C*A*C*A*C*mC*mC*mU*mU*mC (GGGUCTCCTCCACACCCUUC; antisense; sugars from the 5' end m5 d10 m5, all phosphorothioate, methylation of C not given here) [[LINC-PINT]128]”, the “TLR7-100 nM: averaged NF-κB-Luciferase relative to R848” value stood at 21.47%.

Take “mG*mG*mU*mC*mC*C*A*T*C*C*C*T*T*C*T*mG*mC*mU*mG*mC (GGUCCCATCCCTTCTGCUGC; sugars from the 5' end m5 d10 m5, all phosphorothioate, methylation of C not given here) [[LINC-PINT]103]”: the “TLR7-100 nM: averaged NF-κB-Luciferase relative to R848” value came to 20.75%.

For the substance “mG*mG*mU*mC*mU*C*C*T*C*C*A*C*A*C*C*mC*mU*mU*mC*mU (mG*mG*mU*mC*mU*dC*dC*dT*dC*dC*dA*dC*dA*dC*dC*mC*mU*mU*mC*mU; antisense) [[LINC-PINT]127]”, the “TLR7-100 nM: averaged NF-κB-Luciferase relative to R848” value is listed as 23.66%.

Regarding “mG*mG*mU*mG*mG*C*C*A*C*A*G*G*C*A*A*mC*mG*mU*mC*mA (GGUGGCCACAGGCAACGUCA; antisense; sugars from the 5' end m5 d10 m5, all phosphorothioate, methylation of C not given here) [[CDKN2B-AS1]2196]”, the “TLR7-100 nM: averaged NF-κB-Luciferase relative to R848” value is listed as 39.07%.

“mG*mU*mC*mA*mA*A*C*C*T*A*G*A*A*A*G*mA*mA*mG*mC*mA (mG*mU*mC*mA*mA*dA*dC*dC*dT*dA*dG*dA*dA*dA*dG*mA*mA*mG*mC*mA; antisense) [[CDKN2B-AS1]1528]”: the “TLR7-100 nM: averaged NF-κB-Luciferase relative to R848” value amounted to 23.64%.

“mG*mU*mC*mC*mC*A*G*G*C*C*T*C*C*A*G*mU*mG*mU*mC*mU (mG*mU*mC*mC*mC*dA*dG*dG*dC*dC*dT*dC*dC*dA*dG*mU*mG*mU*mC*mU; antisense) [[CDKN2B-AS1]2223]”: the “TLR7-100 nM: averaged NF-κB-Luciferase relative to R848” value was determined as 19.01%.

Regarding “mG*mU*mC*mC*mC*A*T*C*C*C*T*T*C*T*G*mC*mU*mG*mC*mC (GUCCCATCCCTTCTGCUGCC; antisense; sugars from the 5' end m5 d10 m5, all phosphorothioate, methylation of C not given here) [[LINC-PINT]102]”, the “TLR7-100 nM: averaged NF-κB-Luciferase relative to R848” value is reported as 22.47%.

Take “mG*mU*mC*mC*mG*T*A*C*C*T*C*C*A*C*C*mC″mA*mC*mC*mG [[LINC-PINT]727.1]”: the “TLR7-100 nM: averaged NF-κB-Luciferase relative to R848” value amounted to 22.79%.

In the case of “mG*mU*mC*mU*mC*C*T*C*C*A*C*A*C*C*C*mU*mU*mC*mU*mC (mG*mU*mC*mU*mC*dC*dT*dC*dC*dA*dC*dA*dC*dC*dC*mU*mU*mC*mU*mC; antisense) [[LINC-PINT]126]”, the “TLR7-100 nM: averaged NF-κB-Luciferase relative to R848” value was found to be 25.01%.

Turning to “mG*mU*mU*mC*mA*G*T*C*A*G*A*T*C*G*C*mU*mG*mG*mG*mA (mG*mU*mU*mC*mA*dG*dT*dC*dA*dG*dA*dT*dC*dG*dC*mU*mG*mG*mG*mA) [[LINC-PINT]412 KL]”, the “TLR7-100 nM: averaged NF-κB-Luciferase relative to R848” value is 17.46%.
